Reference: PMC10709440, “High-throughput ligand profile characterization in novel cell lines expressing seven heterologous insect olfactory receptors for the detection of volatile plant biomarkers” (Scientific Reports, 2023)
Read-outs that look alike come from different tables or passages of the source.

Assays:
[1] = test system: OR85b; parameters: method as in earlier work; details: DoOR database value, ref DoOR, cited from earlier work
[2] = test system: OR49b; parameters: method as in earlier work; details: DoOR database value, ref DoOR, cited from earlier work
[3] = test system: OR98a; parameters: method as in earlier work; details: DoOR database value, ref DoOR, cited from earlier work
[4] = molecular target: T1, Drosophila OR85b (Drosophila melanogaster, UniProt Q9VHQ7); test: Calcium ion fluorescence (GCaMP6) assay, OR85b stable HEK293 cell line; type: cell-based; details: for OR85b response (VUAA1-normalized) at 1 μM / OR85b response (VUAA1-normalized) at 10 μM / OR85b response (VUAA1-normalized) at 100 μM / Average response: OR85b cell line; for Average response: VUAA1-normalized response, mean of biological replicates; for activation at 1 µM / activation at 10 µM / activation at 100 µM: HEK293, read-out: OR85b response (VUAA1-normalized response)
T1 construct: expressed in transfected cells
T1 sequence (Q9VHQ7 1-390): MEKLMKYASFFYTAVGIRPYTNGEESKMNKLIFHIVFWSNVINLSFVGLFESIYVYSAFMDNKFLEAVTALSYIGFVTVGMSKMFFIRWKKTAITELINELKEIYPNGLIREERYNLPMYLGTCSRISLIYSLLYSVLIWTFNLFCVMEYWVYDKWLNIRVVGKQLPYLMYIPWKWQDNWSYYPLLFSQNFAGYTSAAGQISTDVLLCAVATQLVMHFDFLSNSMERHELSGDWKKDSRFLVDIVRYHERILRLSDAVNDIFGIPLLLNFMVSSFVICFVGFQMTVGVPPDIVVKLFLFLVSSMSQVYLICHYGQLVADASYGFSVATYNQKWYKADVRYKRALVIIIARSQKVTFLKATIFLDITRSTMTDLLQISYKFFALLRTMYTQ
T1 sequence (Q9VNB5 1-486 partner): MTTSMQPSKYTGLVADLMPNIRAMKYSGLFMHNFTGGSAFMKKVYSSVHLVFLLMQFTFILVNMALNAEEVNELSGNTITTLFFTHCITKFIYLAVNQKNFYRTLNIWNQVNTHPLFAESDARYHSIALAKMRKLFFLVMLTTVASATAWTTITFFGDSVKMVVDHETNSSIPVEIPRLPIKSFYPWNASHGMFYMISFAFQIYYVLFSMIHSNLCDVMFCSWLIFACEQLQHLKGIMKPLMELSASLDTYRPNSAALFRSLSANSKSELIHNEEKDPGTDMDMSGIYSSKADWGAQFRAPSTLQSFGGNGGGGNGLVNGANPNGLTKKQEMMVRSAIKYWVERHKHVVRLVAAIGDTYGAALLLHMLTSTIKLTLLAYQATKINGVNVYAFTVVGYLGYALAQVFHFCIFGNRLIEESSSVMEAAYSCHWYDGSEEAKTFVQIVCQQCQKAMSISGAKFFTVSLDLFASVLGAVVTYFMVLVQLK
Protocol: These VUAA1 normalized ∆F values were used to compare the different receptors and ligands.
The concentration-dependent effect of the reference ligands on their cognate cell lines was examined in more detail. Twelve different ligand concentrations were measured on each cell line in an overall 0.01 μM to 100 μM concentration range with 5 repetitions with three technical replicates each time.
Twelve thousand to 18,000 cells were plated into each well of a black wall, transparent bottom 384-well microplate (Greiner) 48 h or 72 h before the measurements and were simultaneously treated with 1 μg/mL doxycycline. […] The plate has 24 columns, thus we could record responses in up to eight different cell lines in each plate. On the day of the experiment, the growth medium was replaced with 20 µL assay buffer/well (140 mM NaCl, 5 mM KCl, 2 mM CaCl2, 1 mM MgCl2, 5 mM HEPES-Na, 20 mM glucose, pH 7.3, 340 mOsm). […] Baseline fluorescence (F0) was recorded for 5 s, after which 7 µL VOC buffer (140 mM NaCl, 5 mM KCl, 2 mM CaCl2, 1 mM MgCl2, 5 mM HEPES-Na, 31 mM glucose, 0.1% DMSO, pH 7.3, 340 mOsm) was injected into each well in one row and the fluorescence response was recorded for an additional 30 s, at a rate of one read/sec. VOC solutions (VOC buffer with 4× concentration of the final measured VOC concentration, 9 µL/well was injected) were measured on the same wells in a second round with the same protocol. Each individual concentration of a specific VOC sample was recorded in three wells for the same cell line on the same microplate. The raw data were exported in xls file format, F0 and FMAX values, and the fluorescence intensity changes (∆F) were calculated in Excel (Microsoft) (Supplementary file Data summary.xlsx) using the following equation: ΔF=FMAX-F0/F0 (see also Fig. 1C). On each plate, we recorded the response of each cell line to 50 µM VUAA1. The average of these ∆F values of each cell line were used to calculate the VUAA1-normalized values for the rest of the plate, by dividing VOC response ∆F values by the average VUAA1 response ∆F value of the corresponding OR cell line. Each VOC-OR combination was measured three times as technical replicates. […] The average of these replicates were used as one ∆F and VUAA1-normalized ∆F in the following analysis.
In the next rows we tested the reference VOCs (or other VOCs known to activate the corresponding cell lines), in order to test if all cell lines are responsive. The remaining rows were used to test VOCs with unknown effect.
The recorded FMAX, F0, ∆F, VUAA1-normalized ∆F values, as well as the OR name, the name of the tested sample, and the final concentration for each well were copied into supplementary file Data summary.xlsx, that was used to summarize all the plates recorded. Here, the averages of the measurements were calculated for each receptor-VOC-concentration combination.

[5] = test system: OR10a; parameters: method as in earlier work; details: DoOR database value, ref DoOR, cited from earlier work
[6] = test system: OR47a; parameters: method as in earlier work; details: DoOR database value; ref DoOR; cited from earlier work
[7] = ligand concentration 1 (unit not given), threshold 0.05, below shown as 0
[8] = ligand concentration 10 (unit not given), threshold 0.05, below shown as 0
[9] = ligand concentration 100 (unit not given), threshold 0.05, below shown as 0
[10] = concentration 1, normalized fluorescence change, values below 0.05 threshold given as 0
[11] = concentration 10, normalized fluorescence change, values below 0.05 threshold given as 0
[12] = concentration 100, normalized fluorescence change, values below 0.05 threshold given as 0

Structure (SMILES)	Average response ([4]; cc. 1 µM)	Average response ([4]; cc. 10 µM)	Average response ([4]; cc. 100 µM)	DF norm AVERAGE OR85b [4, 7]	DF norm AVERAGE OR85b [4, 8]	DF norm AVERAGE OR85b [4, 9]	OR47a DoOR response [6]	OR49b DoOR response [2]	activation at 1 µM [4] [%]	activation at 10 µM [4] [%]	activation at 100 µM [4] [%]	OR10a DoOR response [5]	other results
CCCCCCCCC=O [nonanal]	0.00	0.00	0.00	0	0	0	–	–	–	–	–	–	OR85b DoOR response ([1]; OR85b): 0.091; OR49b DoOR response ([2]; OR49b): 0.03; OR98a DoOR response ([3]; OR98a): 0.085; OR85b response (VUAA1-normalized) at 1 μM ([4]; VOC concentration 1 μM): 0.00; OR85b response (VUAA1-normalized) at 10 μM ([4]; VOC concentration 10 μM): 0.00; OR85b response (VUAA1-normalized) at 100 μM ([4]; VOC concentration 100 μM): 0.00; OR10a DoOR response ([5]; OR10a): 0.05
C=C1CCC2CC1C2(C)C (stereo not drawn) [beta-pinene]	0.00	0.10	0.09	0	0.09683	0.0913	-0.021	0.011	0	10	9	-0.005	OR85b DoOR response [1]: 0.053; OR98a DoOR response [3]: -0.003
CCCCOC(=O)CC [butyl propanoate]	–	–	–	–	–	–	0.38	–	–	–	–	0.011	–
CC/C=C\CCO [E-3-hexenol]	–	–	–	–	–	–	0.065	0.057	–	–	–	0.04	OR85b DoOR response [1]: 0.75; OR98a DoOR response [3]: 0.44; OR85b response (VUAA1-normalized response) ([4]; VOC concentration 1 μM): 0.00; OR85b response (VUAA1-normalized response) ([4]; VOC concentration 10 μM): 0.00; OR85b response (VUAA1-normalized response) ([4]; VOC concentration 100 μM): 0.00
Cc1cccc(O)c1 [3-methylphenol]	0.0267	0.0173	0.02	–	–	–	–	0.54	0	0	0	–	DF norm AVERAGE OR85b [4, 10]: 0; DF norm AVERAGE OR85b [4, 11]: 0; DF norm AVERAGE OR85b [4, 12]: 0
CCCCCCCCCC=O [decanal]	0.00	0.0324	0.00	0	0	0	–	–	0	0	0	0.08	–
Cc1ccccc1C [o-xylene]	0.08	0.03	0.08	0.08035	0	0.08274	–	–	–	–	–	–	OR85b response (VUAA1-normalized) at 1 μM ([4]; VOC concentration 1 μM): 0.08; OR85b response (VUAA1-normalized) at 10 μM ([4]; VOC concentration 10 μM): 0.00; OR85b response (VUAA1-normalized) at 100 μM ([4]; VOC concentration 100 μM): 0.08
CCCC(O)CC (stereo not drawn) [3-hexanol]	0.00	0.10	0.0225	–	–	–	–	–	0	10	0	–	DF norm AVERAGE OR85b [4, 10]: 0; DF norm AVERAGE OR85b [4, 11]: 0.09908; DF norm AVERAGE OR85b [4, 12]: 0
